Patent US9670204B2, “Compounds and pharmaceutical compositions thereof for the treatment of inflammatory disorders” (Galapagos NV, priority 2013, dated 2017)

Tests used:
[1] = target: T1, hENPP2 (UniProtKB/SwissProt Q13822) (Homo sapiens (Human), UniProt Q13822); test: hENPP2 biochemical assay, LPC as substrate; settings: LPC (palmitoyl 16:0) as substrate
How it was run: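 Human ENPP2 in 50 mM Tris-HCl pH 8.5, 500 mM NaCl, 5 mM KCl, 10 mM CaCl2, 0.1% fatty-acid-free BSA, reacted 30 min at 37 °C with LPC 16:0 (150 µM solution added 1:1). Released choline measured via choline oxidase/peroxidase/TOOS/4-aminoantipyrine quinoneimine dye at 555 nm; IC50 reported.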

[2] = target: T1, hENPP2; test: fluorescent hENPP2 biochemical assay, FS-3 as substrate; settings: read-out: FS3-IC50
How it was run: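 IC50 values come from fluorescence gained as FS-3 is hydrolysed (ex 485, em 520 nm). The reaction, started by adding 0.75 μM FS-3 solution, runs 30 min at 30° C after a 30 min room-temperature preincubation of compound with enzyme. Buffer: Tris-HCl pH 8.0 with NaCl, KCl, MgCl2, CaCl2 and 0.1% BSA.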

| SMILES | IC50 [1] | IC50 [2] |
| --- | --- | --- |
| CCOC(=O)CN1CCN(c2ccc3nc(CC)c(N(C)c4nc(-c5ccc(F)cc5)cs4)n3c2)C(=O)C1 [Compound 64, ethyl 2-(4-(2-ethyl-3-((4-(4-fluorophenyl)thiazol-2-yl)(methyl)amino)imidazo[1,2-a]pyridin-6-yl)-3-oxopiperazin-1-yl)acetate] | > 1000 nM | 0.01 to 100 nM |
| CCc1nc2ccc(C3CCN(S(C)(=O)=O)CC3)cn2c1N(C)c1nc(-c2ccc(F)cc2O)cs1 [Compound 224, 2-(2-((2-ethyl-6-(1-(methylsulfonyl)piperidin-4-yl)imidazo [1,2-a]pyridin-3-yl)(methyl)amino)thiazol-4-yl)-5-fluorophenol] | > 1000 nM | 0.01 to 100 nM |
| CCc1nc2ccc(N3CCN(CC#N)CC3)cn2c1N(C)c1nc(-c2ccc(F)cc2)cs1 [Compound 38, 2-(4-(2-ethyl-3-((4-(4-fluorophenyl)thiazol-2-yl)(methyl)amino)imidazo[1,2-a]pyridin-6-yl)piperazin-1-yl)acetonitrile] | > 1000 nM | 0.01 to 100 nM |
| CCOC(=O)CN1CCN(c2ccc3nc(CC)c(N(C)c4nc(-c5ccc(F)cc5)cs4)n3c2)CC1 [Compound 36, ethyl 2-(4-(2-ethyl-3-((4-(4-fluorophenyl)thiazol-2-yl)(methyl)amino)imidazo [1,2-a]pyridin-6-yl)piperazin-1-yl)acetate] | 100 to 500 nM | 0.01 to 100 nM |
| CCc1nc2ccc(N3CC(NC(=O)CN4CC(O)C4)C3)cn2c1N(C)c1nc(-c2ccc(F)cc2)cs1 [Compound 179, N-(1-(2-ethyl-3-((4-(4-fluorophenyl)thiazol-2-yl)(methyl)amino)imidazo[1,2-a]pyridin-6-yl)azetidin-3-yl)-2-(3-hydroxyazetidin-1-yl)acetamide] | > 1000 nM | 0.01 to 100 nM |
| CCc1nc2ccc(C3CCN(S(=O)(=O)CCCOC(C)=O)CC3)cn2c1N(C)c1nc(-c2ccc(F)cc2)cs1 [Compound 93, 3-(4-(2-ethyl-3-((4-(4-fluorophenyl)thiazol-2-yl)(methyl)amino)imidazo[1,2-a]pyridin-6-yl)piperidin-1-ylsulfonyl)propyl acetate] | 100 to 500 nM | 0.01 to 100 nM |
| CCc1nc2ccc(C3=CCN(C(=O)OC(C)(C)C)CC3)cn2c1N(C)c1nc(-c2ccc(F)cc2)cs1 [Compound 214, tert-butyl 4-(2-ethyl-3-((4-(4-fluorophenyl)thiazol-2-yl)(methyl)amino)imidazo[1,2-a]pyridin-6-yl)-5,6-dihydropyridine-1(2H)-carboxylate] | > 1000 nM | 0.01 to 100 nM |
| CCc1nc2ccc(C3=CN(S(C)(=O)=O)CCC3)cn2c1N(C)c1nc(-c2ccc(Cl)cc2)cs1 [Compound 69, 4-(4-chlorophenyl)-N-(2-ethyl-6-(1-(methylsulfonyl)-1,4,5,6-tetrahydropyridin-3-yl)imidazo[1,2-a]pyridin-3-yl)-N-methylthiazol-2-amine] | > 1000 nM | 0.01 to 100 nM |
| CCc1nc2ccc(C3=CCOCC3)cn2c1N(C)c1nc(-c2ccc(Cl)cc2)cs1 [Compound 221, 4-(4-chlorophenyl)-N-(6-(3,6-dihydro-2H-pyran-4-yl)-2-ethylimidazo[1,2-a]pyridin-3-yl)-N-methylthiazol-2-amine] | > 1000 nM | 0.01 to 100 nM |
| CCc1nc2ccc(C3=CCN(S(=O)(=O)CCl)CC3)cn2c1N(C)c1nc(-c2ccc(F)cc2)cs1 [Compound 67, N-(6-(1-(chloromethylsulfonyl)-1,2,3,6-tetrahydropyridin-4-yl)-2-ethylimidazo[1,2-a]pyridin-3-yl)-4-(4-fluorophenyl)-N-methylthiazol-2-amine] | > 1000 nM | 0.01 to 100 nM |
| CCc1nc2ccc(N3CCC(O)CC3)cn2c1N(C)c1nc(-c2ccc(F)cc2)cs1 [Compound 211, 1-(2-ethyl-3-((4-(4-fluorophenyl)thiazol-2-yl)(methyl)amino)imidazo[1,2-a]pyridin-6-yl)piperidin-4-ol] | > 1000 nM | 0.01 to 100 nM |
| CCc1nc2ccc(N3CCN(C(=O)OC(C)(C)C)CC3=O)cn2c1N(C)c1nc(-c2ccc(F)cc2)cs1 [Compound 62, 4-(2-Ethyl-3-{[4-(4-fluoro-phenyl)-thiazol-2-yl]-methyl-amino}-imidazo[1,2-a]pyridin-6-yl)-3-oxo-piperazine-1-carboxylic acid tert-butyl est] | > 1000 nM | 0.01 to 100 nM |
| CCc1nc2ccc(C3=CCN(S(C)(=O)=O)CC3)cn2c1N(C)c1nc(-c2ccc(Cl)cc2)cs1 [Compound 209, 4-(4-chlorophenyl)-N-(2-ethyl-6-(1-(methylsulfonyl)-1,2,3,6-tetrahydropyridin-4-yl)imidazo[1,2-a]pyridin-3-yl)-N-methylthiazol-2-amine] | > 1000 nM | 0.01 to 100 nM |
| CCc1nc2ccc(N3CCN(CC(=O)O)CC3)cn2c1N(C)c1nc(-c2ccc(F)cc2)cs1 [Compound 42, 2-(4-(2-ethyl-3-((4-(4-fluorophenyl)thiazol-2-yl)(methyl)amino)imidazo[1,2-a]pyridin-6-yl)piperazin-1-yl)acetic acid] | > 1000 nM | 0.01 to 100 nM |
| CCc1nc2ccc(N3CCN(C(=O)C4CCC(=O)N4)CC3)cn2c1N(C)c1nc(-c2ccc(F)cc2)cs1 (stereo not shown) [Compound 201, 5-(4-(2-ethyl-3-((4-(4-fluorophenyl)thiazol-2-yl)(methyl)amino)imidazo[1,2-a]pyridin-6-yl)piperazine-1-carbonyl)pyrrolidin-2-one] | > 1000 nM | 0.01 to 100 nM |
| CCc1nc2ccc(C3CCN(C(=O)CN4CC(F)C4)CC3)cn2c1N(C)c1nc(-c2ccc(F)cc2)cs1 [Compound 133, 1-(4-(2-ethyl-3-((4-(4-fluorophenyl)thiazol-2-yl)(methyl)amino)imidazo[1,2-a]pyridin-6-yl)piperidin-1-yl)-2-(3-fluoroazetidin-1-yl)ethanone] | 100 to 500 nM | 0.01 to 100 nM |
| CCc1nc2ccc(N3CCN(CC(=O)N(C)C)CC3)cn2c1N(C)c1nc(-c2ccc(F)cc2)c(C(=O)C(F)(F)F)s1 [Compound 158, 2-(4-(2-ethyl-3-((4-(4-fluorophenyl)-5-(2,2,2-trifluoroacetoyl)thiazol-2-yl)(methyl)amino)imidazo[1,2-a]pyridin-6-yl)piperazin-1-yl)-N,N-dimethylacetamide] | 100 to 500 nM | 0.01 to 100 nM |
| CCOC(=O)CN1CCN(c2ccc3nc(CC)c(N(C)c4nc(-c5ccc(Cl)cc5)cs4)n3c2)C1=O [Compound 184, ethyl 2-(3-(3-((4-(4-chlorophenyl)thiazol-2-yl)(methyl)amino)-2-ethylimidazo[1,2-a]pyridin-6-yl)-2-oxoimidazolidin-1-yl)acetate] | > 1000 nM | 0.01 to 100 nM |

Further lines, results first:

| IC50 [1] | IC50 [2] | SMILES |
| --- | --- | --- |
| > 1000 nM | 0.01 to 100 nM | CCc1nc2ccc(N3CCN(C(=O)OCCO)CC3)cn2c1N(C)c1nc(-c2ccc(F)cc2)cs1 [Compound 43, 2-hydroxyethyl 4-(2-ethyl-3-((4-(4-fluorophenyl)thiazol-2-yl)(methyl)amino)imidazo[1,2-a]pyridin-6-yl)piperazine-1-carboxylate] |
| > 1000 nM | 0.01 to 100 nM | CCc1nc2ccc(N3CCN(C(=O)OC(C)(C)C)CC3)cn2c1N(C)c1nc(-c2ccc(Cl)cc2)ns1 [Compound 225, tert-butyl 4-(3-((3-(4-chlorophenyl)-1,2,4-thiadiazol-5-yl)(methyl)amino)-2-ethylimidazo[1,2-a]pyridin-6-yl) piperazine-1-carboxylate] |
| > 1000 nM | 0.01 to 100 nM | CCc1nc2ccc(C3CCN(S(C)(=O)=O)CC3)cn2c1N(C)c1nc(-c2ccc(F)cc2NC(C)=O)cs1 [Compound 106, N-(2-(2-((2-ethyl-6-(1-(methylsulfonyl)piperidin-4-yl)imidazo[1,2-a]pyridin-3-yl)(methyl)amino)thiazol-4-yl)-5-fluorophenyl)acetamide] |
| > 1000 nM | 0.01 to 100 nM | CCc1nc2ccc(C3CCN(S(C)(=O)=O)CC3)cn2c1N(C)c1nc(-c2ccc(OC)cc2)cs1 [Compound 82, N-(2-ethyl-6-(1-(methylsulfonyl)piperidin-4-yl)imidazo [1,2-a]pyridin-3-yl)-4-(4-methoxyphenyl)-N-methylthiazol-2-amine] |
| > 1000 nM | 0.01 to 100 nM | CCc1nc2ccc(N3CCN(S(=O)(=O)CCCCl)CC3)cn2c1N(C)c1nc(-c2ccc(F)cc2)cs1 [Compound 55, N-(6-(4-(3-chloropropylsulfonyl)piperazin-1-yl)-2-ethylimidazo[1,2-a]pyridin-3-yl)-4-(4-fluorophenyl)-N-methylthiazol-2-amine] |
| 100 to 500 nM | 0.01 to 100 nM | CCc1nc2ccc(C3CCN(C(=O)CN4CC(O)C4)CC3)cn2c1N(C)c1nc(-c2ccc(F)cc2)cs1 [Compound 128, 1-(4-(2-ethyl-3-((4-(4-fluorophenyl)thiazol-2-yl)(methyl)amino)imidazo[1,2-a]pyridin-6-yl)piperidin-1-yl)-2-(3-hydroxyazetidin-1-yl)ethanone] |
| > 1000 nM | 0.01 to 100 nM | CCc1nc2ccc(N3CCN(C(=O)C4CCN(S(C)(=O)=O)C4)CC3)cn2c1N(C)c1nc(-c2ccc(F)cc2)cs1 (stereo not shown) [Compound 49, (4-(2-ethyl-3-((4-(4-fluorophenyl)thiazol-2-yl)(methyl)amino)imidazo[1,2-a]pyridin-6-yl)piperazin-1-yl)(1-(methylsulfonyl)pyrrolidin-3-yl) methanone] |
| > 1000 nM | 0.01 to 100 nM | CCc1nc2ccc(C3CCNCC3)cn2c1N(C)c1nc(-c2ccc(F)cc2)cs1 [Compound 216, N-(2-ethyl-6-(piperidin-4-yl)imidazo[1,2-a]pyridin-3-yl)-4-(4-fluorophenyl)-N-methylthiazol-2-amine] |
